Laboratory results published in PubChem BioAssay (NCI).
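Test compounds were applied to cells in 96-well plates for 48 hours at 5 doses. GI50: concentration for 50% inhibition of growth. TGI is the concentration that stops growth completely.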

Assays:
Assay in all cases: NCI-60 cell line screen, 48 h
MDA-MB-435 = system: MDA-MB-435
OVCAR-8 ovarian = system: OVCAR-8 ovarian
NCI/ADR-RES ovarian = system: NCI/ADR-RES ovarian
SNB-75 CNS = system: SNB-75 CNS
EKVX NSCLC = system: EKVX NSCLC
U251 CNS = system: U251 CNS
NCI-H460 lung = system: NCI-H460 lung
M14 melanoma = system: M14 melanoma
786-0 renal = system: 786-0 renal
MDA-MB-231 breast = system: MDA-MB-231 breast
SK-MEL-2 melanoma = system: SK-MEL-2 melanoma
DU-145 prostate = system: DU-145 prostate
K-562 leukemia = system: K-562 leukemia
T-47D breast = system: T-47D breast
NCI-H522 lung = system: NCI-H522 lung
SNB-19 CNS = system: SNB-19 CNS
SK-MEL-28 melanoma = system: SK-MEL-28 melanoma
HL-60(TB) leukemia = system: HL-60(TB) leukemia
LOX IMVI melanoma = system: LOX IMVI melanoma
SN12C renal = system: SN12C renal
HT29 colon = system: HT29 colon
UACC-257 melanoma = system: UACC-257 melanoma
ACHN renal = system: ACHN renal
SW-620 colon = system: SW-620 colon
SF-268 CNS = system: SF-268 CNS
CCRF-CEM leukemia = system: CCRF-CEM leukemia
PC-3 prostate = system: PC-3 prostate
BT-549 breast = system: BT-549 breast
RPMI-8226 leukemia = system: RPMI-8226 leukemia
HCC-2998 colon = system: HCC-2998 colon
RXF 393 renal = system: RXF 393 renal
A498 renal = system: A498 renal
A549 NSCLC = system: A549 NSCLC
IGROV1 ovarian = system: IGROV1 ovarian
SK-MEL-5 melanoma = system: SK-MEL-5 melanoma
HCT-15 colon = system: HCT-15 colon
UO-31 renal = system: UO-31 renal
CAKI-1 renal = system: CAKI-1 renal
MCF7 breast = system: MCF7 breast
MOLT-4 leukemia = system: MOLT-4 leukemia
NCI-H23 lung = system: NCI-H23 lung
COLO 205 colon = system: COLO 205 colon
SF-295 CNS = system: SF-295 CNS
HCT-116 colon = system: HCT-116 colon
HS 578T breast = system: HS 578T breast
SR leukemia = system: SR leukemia
SK-OV-3 ovarian = system: SK-OV-3 ovarian
KM12 colon = system: KM12 colon
OVCAR-5 ovarian = system: OVCAR-5 ovarian
SF-539 CNS = system: SF-539 CNS
TK-10 renal = system: TK-10 renal
UACC-62 melanoma = system: UACC-62 melanoma
OVCAR-3 ovarian = system: OVCAR-3 ovarian
HOP-62 NSCLC = system: HOP-62 NSCLC

C=C1C(=O)O[C@H]2C[C@@H]1CC/C(C)=C/CC/C(C)=C/CC[C@H]2C
GI50 (MDA-MB-435): 7.51 µM | TGI (MDA-MB-435): 27.2 µM | GI50 (OVCAR-8 ovarian): 15.7 µM | TGI (OVCAR-8 ovarian): 39.3 µM | GI50 (NCI/ADR-RES ovarian): 7.43 µM | TGI (NCI/ADR-RES ovarian): 21.5 µM | GI50 (SNB-75 CNS): 19.4 µM | TGI (SNB-75 CNS): 35.2 µM | GI50 (EKVX NSCLC): 19.7 µM | TGI (EKVX NSCLC): 42.8 µM | GI50 (U251 CNS): 14.6 µM | TGI (U251 CNS): 28.3 µM | GI50 (NCI-H460 lung): 23.2 µM | TGI (NCI-H460 lung): > 59 µM | GI50 (M14 melanoma): 14.2 µM | TGI (M14 melanoma): 29.3 µM | GI50 (786-0 renal): 14.3 µM | TGI (786-0 renal): 28.2 µM | GI50 (MDA-MB-231 breast): 18.9 µM | TGI (MDA-MB-231 breast): 38.9 µM | GI50 (SK-MEL-2 melanoma): 30.9 µM | TGI (SK-MEL-2 melanoma): > 61.9 µM | GI50 (DU-145 prostate): 18 µM | TGI (DU-145 prostate): 33.5 µM | GI50 (K-562 leukemia): 14 µM | TGI (K-562 leukemia): > 57.1 µM | GI50 (T-47D breast): 25 µM | TGI (T-47D breast): 51.6 µM | GI50 (NCI-H522 lung): 23.5 µM | TGI (NCI-H522 lung): > 66.3 µM | GI50 (SNB-19 CNS): 23.2 µM | TGI (SNB-19 CNS): 55.2 µM | GI50 (SK-MEL-28 melanoma): 21.4 µM | TGI (SK-MEL-28 melanoma): 42.9 µM | GI50 (HL-60(TB) leukemia): 7.14 µM | TGI (HL-60(TB) leukemia): 16.2 µM | GI50 (LOX IMVI melanoma): 5.56 µM | TGI (LOX IMVI melanoma): 12.3 µM | GI50 (SN12C renal): 20.6 µM | TGI (SN12C renal): 39 µM | GI50 (HT29 colon): 28.3 µM | TGI (HT29 colon): > 100 µM | GI50 (UACC-257 melanoma): 11.5 µM | TGI (UACC-257 melanoma): 29.4 µM | GI50 (ACHN renal): 10.6 µM | TGI (ACHN renal): 24.6 µM | GI50 (SW-620 colon): 14.7 µM | TGI (SW-620 colon): 45.9 µM | GI50 (SF-268 CNS): 19.3 µM | TGI (SF-268 CNS): 46.1 µM | GI50 (CCRF-CEM leukemia): 18.8 µM | TGI (CCRF-CEM leukemia): 48.5 µM | GI50 (PC-3 prostate): 8.54 µM | TGI (PC-3 prostate): 20.9 µM | GI50 (BT-549 breast): 17.1 µM | TGI (BT-549 breast): 41.5 µM | GI50 (RPMI-8226 leukemia): 5.46 µM | TGI (RPMI-8226 leukemia): 13.9 µM | GI50 (HCC-2998 colon): 14.5 µM | TGI (HCC-2998 colon): 28.9 µM | GI50 (RXF 393 renal): 9.67 µM | TGI (RXF 393 renal): 27.7 µM | GI50 (A498 renal): 20.6 µM | TGI (A498 renal): 36.6 µM | GI50 (A549 NSCLC): 9.73 µM | TGI (A549 NSCLC): 33 µM | GI50 (IGROV1 ovarian): 18.8 µM | TGI (IGROV1 ovarian): 40 µM | GI50 (SK-MEL-5 melanoma): 17.3 µM | TGI (SK-MEL-5 melanoma): 32.2 µM | GI50 (HCT-15 colon): 15.7 µM | TGI (HCT-15 colon): 32.9 µM | GI50 (UO-31 renal): 1120 nM | TGI (UO-31 renal): 4.02 µM | GI50 (CAKI-1 renal): 17 µM | TGI (CAKI-1 renal): 33.6 µM | GI50 (MCF7 breast): 14.7 µM | TGI (MCF7 breast): 56.7 µM | GI50 (MOLT-4 leukemia): 10.6 µM | TGI (MOLT-4 leukemia): > 24.6 µM | GI50 (NCI-H23 lung): 20.6 µM | TGI (NCI-H23 lung): 41 µM | GI50 (COLO 205 colon): 30.1 µM | TGI (COLO 205 colon): > 83.7 µM | GI50 (SF-295 CNS): 13.4 µM | TGI (SF-295 CNS): 32.7 µM | GI50 (HCT-116 colon): 7.82 µM | TGI (HCT-116 colon): 21.3 µM | GI50 (HS 578T breast): 27.3 µM | TGI (HS 578T breast): > 78 µM | GI50 (SR leukemia): 7.14 µM | TGI (SR leukemia): 15.2 µM | GI50 (SK-OV-3 ovarian): 19.2 µM | TGI (SK-OV-3 ovarian): 38.9 µM | GI50 (KM12 colon): 18.1 µM | TGI (KM12 colon): 44.4 µM | GI50 (OVCAR-5 ovarian): 17.2 µM | TGI (OVCAR-5 ovarian): 34.6 µM | GI50 (SF-539 CNS): 15.7 µM | TGI (SF-539 CNS): 33.6 µM | GI50 (TK-10 renal): 20 µM | TGI (TK-10 renal): 37.7 µM | GI50 (UACC-62 melanoma): 19.3 µM | TGI (UACC-62 melanoma): 34.6 µM | GI50 (OVCAR-3 ovarian): 3.94 µM | TGI (OVCAR-3 ovarian): 19 µM | GI50 (HOP-62 NSCLC): 12.5 µM | TGI (HOP-62 NSCLC): 27.1 µM
